Assay results: patent publication US9187472B2 (AbbVie Inc., priority 2012, dated 2015)

Tests used:
[1] = molecular target: NAMPT (human, recombinant, C-terminally His-tagged) (Homo sapiens, UniProt P43490); test: Time-Resolved Fluorescence Resonance Energy Transfer (TR-FRET) Binding Assay of NAMPT; conditions: without substrates; 6.8 nM NAMPT, 200 nM probe, 3 hours equilibration
Summary of the method: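 Read-out is the time-resolved FRET ratio Em520/Em495 (excitation 337 nm) between a terbium anti-His antibody (1 nM) on the enzyme and an Oregon Green 488-labelled nicotinamide-competitive inhibitor probe (200 nM). Enzyme was 6.8 nM, DMSO 2%, pH 7.5 HEPES buffer; 3 h room-temperature equilibration preceded reading.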

NAMPT = NAMPT (Homo sapiens, UniProt P43490); test: TR-FRET Binding Assay of NAMPT with PRPP; conditions: with 200 μM PRPP and 2.5 mM ATP; 2 nM NAMPT, 2 nM probe, 16 hours equilibration
Sequence of NAMPT (P43490 whole entry): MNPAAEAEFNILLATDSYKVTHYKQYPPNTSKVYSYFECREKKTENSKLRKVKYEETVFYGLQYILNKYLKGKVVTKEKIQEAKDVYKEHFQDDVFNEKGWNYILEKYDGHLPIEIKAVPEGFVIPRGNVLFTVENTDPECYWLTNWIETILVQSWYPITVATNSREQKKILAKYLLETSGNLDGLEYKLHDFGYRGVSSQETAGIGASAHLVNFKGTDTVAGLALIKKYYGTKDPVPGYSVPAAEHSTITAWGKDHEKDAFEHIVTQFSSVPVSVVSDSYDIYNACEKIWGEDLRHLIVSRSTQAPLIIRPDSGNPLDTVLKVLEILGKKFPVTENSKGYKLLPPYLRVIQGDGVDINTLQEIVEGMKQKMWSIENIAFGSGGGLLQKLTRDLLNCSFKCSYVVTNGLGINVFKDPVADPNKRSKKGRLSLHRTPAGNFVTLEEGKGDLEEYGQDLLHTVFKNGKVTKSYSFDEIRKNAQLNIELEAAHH
Summary of the method: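 NAMPT 2 nM + probe 2 nM + Tb-anti-His Ab 1 nM; PRPP 200 μM, ATP 2.5 mM, DMSO 2%; 16 h equilibration before TR-FRET read.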

PC3 cells = test: NAMPT Cell Proliferation Assay; type: cell-based; conditions: Homo sapiens, PC-3, 120 h, 5 days incubation, cell viability by Cell Titer Glo
Summary of the method: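 Cell Titer Glo viability after 5-day exposure (37° C, 5% CO2); PC3, 500 cells/well, RPMI + 10% heat-inactivated FBS, overnight attachment before dosing. Dose range 10 μM to 1×10^−5 μM, 10-fold steps. IC50 = sigmoidal fit of % inhibition.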

Sequence of NAMPT (human, recombinant, C-terminally His-tagged) (P43490 whole entry): as above

SMILES | IC50 [1] | IC50 (NAMPT) | IC50 (PC3 cells)
O=C(Nc1ccc(C(=O)NCCN2CCOCC2)cc1)Nc1ccc2nccn2c1 [Example 5, 4-[(imidazo[1,2-a]pyridin-6-ylcarbamoyl)amino]-N-[2-(morpholin-4-yl)ethyl]benzamide] | 2500 nM | 0.684 nM | 740 nM
O=C(CC1CCCO1)Nc1ccc(NC(=O)NCc2ccn3ccnc3c2)cc1 (stereo not drawn) [Example 283, N-(4-{[(imidazo[1,2-a]pyridin-7-ylmethyl)carbamoyl]amino}phenyl)-2-(tetrahydrofuran-2-yl)acetamide] | 63.2 nM | 0.264 nM | 145 nM
O=C(NCc1ccc2nccn2c1)c1cnc(N2Cc3ccccc3C2)s1 [Example 88, 2-(1,3-dihydro-2H-isoindol-2-yl)-N-(imidazo[1,2-a]pyridin-6-ylmethyl)-1,3-thiazole-5-carboxamide] | 2850 nM | 8.55 nM | 8110 nM
COc1ccc(C(=O)N2CC(c3ccc(C(=O)NCc4ccn5ccnc5c4)cc3)C2)cc1 [Example 655, N-(imidazo[1,2-a]pyridin-7-ylmethyl)-4-[1-(4-methoxybenzoyl)azetidin-3-yl]benzamide] | 230 nM | 0.998 nM | 68.8 nM
CC(C)(C)C(=O)N1CCC(c2ccc(C(=O)NCc3ccn4ccnc4c3)cc2)C1 (stereo not drawn) [Example 585, 4-[1-(2,2-dimethylpropanoyl)pyrrolidin-3-yl]-N-(imidazo[1,2-a]pyridin-7-ylmethyl)benzamide] | 641 nM | 0.648 nM | 34.6 nM
O=C(NCc1ccn2ccnc2c1)c1ccc(C2CCN(C(=O)c3ccc(F)cc3F)CC2)cc1 [Example 506, 4-[1-(2,4-difluorobenzoyl)piperidin-4-yl]-N-(imidazo[1,2-a]pyridin-7-ylmethyl)benzamide] | 245 nM | 0.407 nM | 18 nM
O=C(Nc1ccc(C(=O)NCc2ccccc2)cc1)Nc1ccc2nccn2c1 [Example 7, N-benzyl-4-[(imidazo[1,2-a]pyridin-6-ylcarbamoyl)amino]benzamide] | 183 nM | 0.516 nM | 527 nM
O=C(NCc1ccn2ccnc2c1)c1ccc(C2CCN(C(=O)c3ccccn3)CC2)cc1 [Example 498, N-(imidazo[1,2-a]pyridin-7-ylmethyl)-4-[1-(pyridin-2-ylcarbonyl)piperidin-4-yl]benzamide] | 309 nM | 0.169 nM | 17.9 nM
CC(C)C[C@H](NC(=O)C1CC1)c1ccc(C(=O)NCc2ccn3ccnc3c2)s1 [Example 687, 5-{(1S)-1-[(cyclopropylcarbonyl)amino]-3-methylbutyl}-N-(imidazo[1,2-a]pyridin-7-ylmethyl)thiophene-2-carboxamide] | 97.3 nM | 1.16 nM | 2.19 nM
CC(C)OCCNC(=O)c1ccc(NC(=O)Nc2ccc3nccn3c2)cc1 [Example 12, -[(imidazo[1,2-a]pyridin-6-ylcarbamoyl)amino]-N-[2-(propan-2-yloxy)ethyl]benzamide] | 486 nM | 0.292 nM | 213 nM
CC(C)(O)C(=O)N1CCC(c2ccc(NC(=O)NCc3ccn4ccnc4c3)cc2)CC1 [Example 227, 1-{4-[1-(2-hydroxy-2-methylpropanoyl)piperidin-4-yl]phenyl}-3-(imidazo[1,2-a]pyridin-7-ylmethyl)urea] | 16.2 nM | 0.273 nM | 6.28 nM
CC(C)OCC(=O)N1CC(c2ccc(NC(=O)NCc3ccn4ccnc4c3)cc2)C1 [Example 456, 1-(imidazo[1,2-a]pyridin-7-ylmethyl)-3-(4-{1-[(propan-2-yloxy)acetyl]azetidin-3-yl}phenyl)urea] | 389 nM | 0.169 nM | 49.6 nM
CC(C)C(=O)N1CC(c2ccc(C(=O)NCc3ccn4ccnc4c3)cc2)C1 [Example 490, N-(imidazo[1,2-a]pyridin-7-ylmethyl)-4-[1-(2-methylpropanoyl)azetidin-3-yl]benzamide] | 753 nM | 0.267 nM | 89.9 nM
